Measured values: US20250084056A1, “SUBSTITUTED OXOISOINDOLINYL PIPERIDINE-2,6-DIONE COMPOUNDS” (BRISTOL-MYERS SQUIBB COMPANY, priority 2023, published 2025)

Tests used:
Assay type in all cases: cell-based
Cyclin E1 = Cyclin E1 (Homo sapiens, UniProt P24864+Q96SW2); test: Cyclin E1 Cellular Degradation Assay (MSD); design: endogenous in cells; host or cells: OVCAR3; conditions: for DC50 / Dmax: Cyclin E1 cellular degradation; for Dmax: maximum degradation; for Ratio of GSPT1 DC50/Cyclin E1 DC50: selectivity for degradation of Cyclin E1 over GSPT1
Method in brief: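 OVCAR3 cells treated with compound for 24 h at 37 °C, lysed, and cyclin E1 measured by MSD sandwich immunoassay (rabbit capture, mouse detection anti-CCNE1). Reference degrader at […] defined 110% response; DC50 and Dmax derived from response.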

GSPT1 = GSPT1 (Homo sapiens, UniProt P15170+Q96SW2); test: GSPT1 Cellular Degradation Assay (DF15-GSPT1-ePL); design: expressed in transfected cells; conditions: DF15-GSPT1-ePL cells, 20 hours
Method in brief: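 Human DF15 cells co-expressing a GSPT1–ePL fusion were treated with compound in RPMI 1640/10% FBS for 20 h at 37 °C. GSPT1 level was read by enzyme-fragment-complementation luminescence after 60 min with detection reagent. The reference degrader at […] defined 75% response; DC50 and Dmax were reported.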

Phospho-Rb (Ser807/811) = test: Phospho-Retinoblastoma (pRB) Cellular Assay; conditions: Homo sapiens, OVCAR-3, NIH OVCAR3 cells, 24 hours; for IC50: concentration giving 50% response; for Emax: maximum response, reference compound at 10 μM = 100%, read-out: pRB Ymax
Method in brief: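 OVCAR3 cells seeded overnight, then dosed with serial dilutions for 24 h at 37° C. Lysed with kit mix plus phosphatase inhibitor, ≥4 h at room temperature, read on EnVision; 100% response set by reference compound at 10 μM, giving IC50 and Ymax.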

Chain of Cyclin E1 (P24864 whole entry): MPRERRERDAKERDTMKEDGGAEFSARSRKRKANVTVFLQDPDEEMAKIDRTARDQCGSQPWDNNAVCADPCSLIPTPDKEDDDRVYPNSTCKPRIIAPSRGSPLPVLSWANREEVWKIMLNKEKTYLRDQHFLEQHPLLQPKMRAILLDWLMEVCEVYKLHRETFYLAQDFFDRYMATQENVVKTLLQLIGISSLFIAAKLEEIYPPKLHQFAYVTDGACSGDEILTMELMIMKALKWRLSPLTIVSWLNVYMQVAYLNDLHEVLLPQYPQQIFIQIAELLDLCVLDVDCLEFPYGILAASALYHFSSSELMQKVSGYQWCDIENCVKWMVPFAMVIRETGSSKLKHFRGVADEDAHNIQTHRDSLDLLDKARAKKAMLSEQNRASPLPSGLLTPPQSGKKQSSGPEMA
Chain of Cyclin E1 (Q96SW2 whole entry): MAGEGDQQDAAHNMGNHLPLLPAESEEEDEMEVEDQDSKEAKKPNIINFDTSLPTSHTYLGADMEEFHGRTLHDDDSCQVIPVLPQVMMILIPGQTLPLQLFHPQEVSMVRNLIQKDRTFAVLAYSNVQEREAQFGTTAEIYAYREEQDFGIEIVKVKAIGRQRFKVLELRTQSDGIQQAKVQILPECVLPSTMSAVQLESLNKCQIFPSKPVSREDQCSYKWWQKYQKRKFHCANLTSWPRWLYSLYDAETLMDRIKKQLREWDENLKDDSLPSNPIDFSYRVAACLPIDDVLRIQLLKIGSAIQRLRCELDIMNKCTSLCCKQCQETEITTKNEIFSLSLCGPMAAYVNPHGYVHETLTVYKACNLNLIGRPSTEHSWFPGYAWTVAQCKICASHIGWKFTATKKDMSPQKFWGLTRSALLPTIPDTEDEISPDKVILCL
Chain of Cyclin E1 (Q16531 whole entry partner): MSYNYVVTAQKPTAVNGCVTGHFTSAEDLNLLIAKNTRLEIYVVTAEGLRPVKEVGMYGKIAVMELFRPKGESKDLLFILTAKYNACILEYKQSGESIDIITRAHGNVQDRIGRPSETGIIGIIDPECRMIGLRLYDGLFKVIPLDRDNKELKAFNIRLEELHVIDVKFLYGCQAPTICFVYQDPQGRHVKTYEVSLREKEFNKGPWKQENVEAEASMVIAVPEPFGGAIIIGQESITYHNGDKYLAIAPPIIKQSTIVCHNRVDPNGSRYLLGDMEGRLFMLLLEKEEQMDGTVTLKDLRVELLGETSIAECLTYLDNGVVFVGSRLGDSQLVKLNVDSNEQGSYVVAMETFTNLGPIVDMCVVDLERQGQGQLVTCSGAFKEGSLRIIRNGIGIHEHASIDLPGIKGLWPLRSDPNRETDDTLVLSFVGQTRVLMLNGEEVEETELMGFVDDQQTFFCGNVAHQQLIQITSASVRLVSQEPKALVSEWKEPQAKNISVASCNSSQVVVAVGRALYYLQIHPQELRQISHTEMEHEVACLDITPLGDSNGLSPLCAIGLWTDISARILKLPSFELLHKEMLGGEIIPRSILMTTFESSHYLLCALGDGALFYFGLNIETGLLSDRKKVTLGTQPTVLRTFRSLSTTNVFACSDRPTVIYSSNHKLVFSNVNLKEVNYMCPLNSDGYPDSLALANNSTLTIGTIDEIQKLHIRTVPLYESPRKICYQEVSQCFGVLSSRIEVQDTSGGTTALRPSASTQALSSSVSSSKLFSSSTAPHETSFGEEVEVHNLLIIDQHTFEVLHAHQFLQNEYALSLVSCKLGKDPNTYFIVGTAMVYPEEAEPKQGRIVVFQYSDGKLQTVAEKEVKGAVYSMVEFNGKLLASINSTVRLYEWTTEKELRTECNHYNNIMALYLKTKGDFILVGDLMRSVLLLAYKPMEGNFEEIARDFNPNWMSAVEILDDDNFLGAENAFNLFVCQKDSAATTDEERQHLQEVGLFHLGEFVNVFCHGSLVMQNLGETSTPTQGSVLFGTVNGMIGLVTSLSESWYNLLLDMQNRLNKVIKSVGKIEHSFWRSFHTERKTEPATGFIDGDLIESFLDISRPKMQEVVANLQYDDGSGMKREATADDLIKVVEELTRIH
Chain of GSPT1 (P15170 whole entry, the tested form may be a part): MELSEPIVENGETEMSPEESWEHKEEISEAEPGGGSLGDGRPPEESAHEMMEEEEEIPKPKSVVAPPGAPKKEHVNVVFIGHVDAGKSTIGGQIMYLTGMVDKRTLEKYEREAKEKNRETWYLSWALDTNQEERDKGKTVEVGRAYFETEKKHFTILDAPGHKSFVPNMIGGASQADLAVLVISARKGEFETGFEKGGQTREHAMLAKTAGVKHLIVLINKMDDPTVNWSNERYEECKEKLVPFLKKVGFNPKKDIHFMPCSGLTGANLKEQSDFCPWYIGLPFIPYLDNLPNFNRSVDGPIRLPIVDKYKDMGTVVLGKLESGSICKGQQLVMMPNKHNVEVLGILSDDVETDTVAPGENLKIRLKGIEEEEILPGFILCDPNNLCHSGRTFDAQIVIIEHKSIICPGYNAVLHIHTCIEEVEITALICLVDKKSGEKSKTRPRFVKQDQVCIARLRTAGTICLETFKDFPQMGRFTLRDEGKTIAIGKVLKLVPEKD
Chain of GSPT1 (Q96SW2 whole entry, the tested form may be a part): as the sequence (Q96SW2 whole entry) above
Chain of GSPT1 (Q16531 whole entry partner, the tested form may be a part): as the sequence (Q16531 whole entry partner) above

SMILES | DC50 (Cyclin E1) [nM] | Dmax (Cyclin E1) [%] | Ratio of GSPT1 DC50/Cyclin E1 DC50 (Cyclin E1) | DC50 (GSPT1) [nM] | Dmax (GSPT1) [%] | IC50 (Phospho-Rb (Ser807/811)) [nM] | Emax (Phospho-Rb (Ser807/811)) [%]
O=C1CCC(N2Cc3ccc(COC(=O)Nc4ccc(Oc5ccc(F)cc5F)cc4F)c(OC4CCOCC4)c3C2=O)C(=O)N1 (centres unmarked) [Example 136, [2-(2,6-dioxopiperidin-3-yl)-4-(oxan-4-yloxy)-3-oxo-2,3-dihydro-1H-isoindol-5-yl]methyl N-[4-(2,4-difluorophenoxy)-2-fluorophenyl]carbamate] | 38 | 110 | >368 | > 14000 | 11 | 24 | 144
CC(C)Oc1c(COC(=O)Nc2ccc(Oc3ccc(F)cc3Cl)cc2)ccc2c1C(=O)N(C1CCC(=O)NC1=O)C2 (centres unmarked) [Example 124, [2-(2,6-dioxopiperidin-3-yl)-3-oxo-4-(propan-2-yloxy)-2,3-dihydro-1H-isoindol-5-yl]methyl N-[4-(2-chloro-4-fluorophenoxy)phenyl]carbamate] | 195 | 103 | >72 | > 14000 | 15 | 163 | 121
COc1cc(Oc2ccc(F)cc2C)ccc1NC(=O)OCc1ccc2c(c1OC)C(=O)N(C1CCC(=O)NC1=O)C2 (centres unmarked) [Example 75, [2-(2,6-dioxopiperidin-3-yl)-4-methoxy-3-oxo-2,3-dihydro-1H-isoindol-5-yl]methyl N-[4-(4-fluoro-2-methylphenoxy)-2-methoxyphenyl]carbamate] | 328 | 109 | >43 | > 14000 | 23 | 287 | 120
COc1c(COC(=O)Nc2ccc(Oc3ccc(F)c(C)c3)cc2)ccc2c1C(=O)N(C1CCC(=O)NC1=O)C2 (centres unmarked) [Example 96, [2-(2,6-dioxopiperidin-3-yl)-4-methoxy-3-oxo-2,3-dihydro-1H-isoindol-5-yl]methyl N-[4-(4-fluoro-3-methylphenoxy)phenyl]carbamate] | 129 | 106 | >109 | > 14000 | 27 | 100 | 117
CN(C)C(=O)COc1c(COC(=O)Nc2ccc(Oc3ccc(F)c(F)c3)cc2)ccc2c1C(=O)N(C1CCC(=O)NC1=O)C2 (centres unmarked) [Example 175, {4-[(dimethylcarbamoyl)methoxy]-2-(2,6-dioxopiperidin-3-yl)-3-oxo-2,3-dihydro-1H-isoindol-5-yl}methyl N-[4-(3,4-difluorophenoxy)phenyl]carbamate] | 45 | 110 | >308 | > 14000 | 11 | 30 | 128
CCOc1c(COC(=O)Nc2ccc(Oc3ccccc3)cc2)ccc2c1C(=O)N(C1CCC(=O)NC1=O)C2 (centres unmarked) [Example 52, [2-(2,6-dioxopiperidin-3-yl)-4-ethoxy-3-oxo-2,3-dihydro-1H-isoindol-5-yl]methyl N-(4-phenoxyphenyl)carbamate] | 134 | 107 | >105 | > 14000 | 13 | 81 | 111
[2H]C1([2H])C(=O)NC(=O)[C@@]([2H])(N2Cc3ccc(COC(=O)Nc4ccc(Oc5ccc(F)c(F)c5)cc4)c(OC)c3C2=O)C1([2H])[2H] [Example 180, {2-[(3S)-2,6-dioxo(3,4,4,5,5-^2H5s)piperidin-3-yl]-4-methoxy-3-oxo-2,3-dihydro-1H-isoindol-5-yl}methyl N-[4-(3,4-difluorophenoxy)phenyl]carbamate] | 60 | 111 | >233 | > 14000 | 48 | 54 | 108

More lines, main results first:

DC50 (Cyclin E1) [nM] | Dmax (Cyclin E1) [%] | Ratio of GSPT1 DC50/Cyclin E1 DC50 (Cyclin E1) | DC50 (GSPT1) [nM] | Dmax (GSPT1) [%] | IC50 (Phospho-Rb (Ser807/811)) [nM] | SMILES | Emax (Phospho-Rb (Ser807/811)) [%]
20 | 107 | >693 | > 14000 | 10 | 66 | O=C1CCC(N2Cc3ccc(COC(=O)Nc4ccc(Oc5ccc(F)c(F)c5)cc4F)c(OC4CCOCC4)c3C2=O)C(=O)N1 (centres unmarked) [Example 132, [2-(2,6-dioxopiperidin-3-yl)-4-(oxan-4-yloxy)-3-oxo-2,3-dihydro-1H-isoindol-5-yl]methyl N-[4-(3,4-difluorophenoxy)-2-fluorophenyl]carbamate] | 142
47 | 112 | >296 | > 14000 | 8 | 38 | O=C1CCC(N2Cc3ccc(COC(=O)Nc4ccc(Oc5ccc(F)c(F)c5)cc4F)c(O[C@@H]4CCCOC4)c3C2=O)C(=O)N1 (stereo partly drawn) [Example 146, [2-(2,6-dioxopiperidin-3-yl)-4-[(3R)-oxan-3-yloxy]-3-oxo-2,3-dihydro-1H-isoindol-5-yl]methyl N-[4-(3,4-difluorophenoxy)-2-fluorophenyl]carbamate] | 133
257 | 108 | >54 | > 14000 | 28 | 339 | COc1c(COC(=O)Nc2ccc(Oc3ccc(F)c(F)c3)cc2)ccc2c1C(=O)N([C@@H]1CCC(=O)NC1=O)C2 (single isomer, unassigned) [Example 36] | 98
111 | 107 | >127 | > 14000 | 42 | 66 | COc1c(COC(=O)Nc2ccc(Oc3cc(F)c(F)cc3Cl)cc2F)ccc2c1C(=O)N(C1CCC(=O)NC1=O)C2 (centres unmarked) [Example 109, [2-(2,6-dioxopiperidin-3-yl)-4-methoxy-3-oxo-2,3-dihydro-1H-isoindol-5-yl]methyl N-[4-(2-chloro-4,5-difluorophenoxy)-2-fluorophenyl]carbamate] | 114
263 | 105 | >53 | > 14000 | 11 | 94 | O=C1CCC(N2Cc3ccc(COC(=O)Nc4ccc(Oc5ccc(F)c(F)c5)cc4F)c(Oc4ccccc4)c3C2=O)C(=O)N1 (centres unmarked) [Example 69, [2-(2,6-dioxopiperidin-3-yl)-3-oxo-4-phenoxy-2,3-dihydro-1H-isoindol-5-yl]methyl N-[4-(3,4-difluorophenoxy)-2-fluorophenyl]carbamate] | 125
165 | 111 | >85 | > 14000 | 33 | 131 | COc1c(COC(=O)Nc2ccc(Oc3cc(F)c(F)cc3F)cc2F)ccc2c1C(=O)N(C1CCC(=O)NC1=O)C2 (centres unmarked) [Example 43, [2-(2,6-dioxopiperidin-3-yl)-4-methoxy-3-oxo-2,3-dihydro-1H-isoindol-5-yl]methyl N-[2-fluoro-4-(2,4,5-trifluorophenoxy)phenyl]carbamate] | 121
107 | 102 | >131 | > 14000 | 28 | 289 | COc1cc(Oc2ccc(F)cc2)ccc1NC(=O)OCc1ccc2c(c1OC)C(=O)N(C1CCC(=O)NC1=O)C2 (centres unmarked) [Example 37, [2-(2,6-dioxopiperidin-3-yl)-4-methoxy-3-oxo-2,3-dihydro-1H-isoindol-5-yl]methyl N-[4-(4-fluorophenoxy)-2-methoxyphenyl]carbamate] | 111
223 | 106 | >63 | > 14000 | 20 | 160 | COc1c(COC(=O)Nc2ccc(Oc3ccc(Cl)c(F)c3)cc2F)ccc2c1C(=O)N(C1CCC(=O)NC1=O)C2 (centres unmarked) [Example 91, [2-(2,6-dioxopiperidin-3-yl)-4-methoxy-3-oxo-2,3-dihydro-1H-isoindol-5-yl]methyl N-[4-(4-chloro-3-fluorophenoxy)-2-fluorophenyl]carbamate] | 101
327 | 109 | >43 | > 14000 | 25 | 354 | COc1c(COC(=O)Nc2ccc(Oc3ccc(F)c(C)c3)cc2C)ccc2c1C(=O)N(C1CCC(=O)NC1=O)C2 (centres unmarked) [Example 82, [2-(2,6-dioxopiperidin-3-yl)-4-methoxy-3-oxo-2,3-dihydro-1H-isoindol-5-yl]methyl N-[4-(4-fluoro-3-methylphenoxy)-2-methylphenyl]carbamate] | 97
39 | 107 | >358 | > 14000 | 10 | 229 | COc1c(COC(=O)Nc2ccc(Oc3cc(F)cc(F)c3)cc2F)ccc2c1C(=O)N(C1CCC(=O)NC1=O)C2 (centres unmarked) [Example 24, [2-(2,6-dioxopiperidin-3-yl)-4-methoxy-3-oxo-2,3-dihydro-1H-isoindol-5-yl]methyl N-[4-(3,5-difluorophenoxy)-2-fluorophenyl]carbamate] | 105
